Reference: patent US20220313780A1, “METHODS AND COMPOSITIONS FOR TREATING INFLAMMATORY CONDITIONS” (THE SCRIPPS RESEARCH INSTITUTE, priority 2019, published 2022)

System: endothelial cells (EA.hy926)
Assay: Transendothelial Electric Resistance (TER) assay of thrombin-induced endothelial barrier disruption
Type: cell-based
Details: peptide at 5 to 50 nM
Excerpt: The bottom curve in each panel of the figure is labeled as IIa for thrombin alone and represents the observed effects for thrombin (IIa) in the absence of peptide. In each panel, IIa was always present for each peptide added. The number in each panel indicates the concentration of each peptide for the respective curves. The peptide concentration of 0 is represented by the bottom curve labeled “IIa”. (A) the dose response inhibition over time of TER, expressed by Normalized Cell Index (NCI) by the PAR1 derived peptide P1(47-66) or TR47 using concentrations between 5 and 50 nM. (B) the dose response inhibition over time of NCI by the PAR3-derived peptide P3(42-65) or P3R using a 5 to 50 nM concentration range. (C) The NCI dose response inhibition over time by the short sequence PAR1-derived peptide P1(47-55) using a range of concentrations between 50 nM and 100 μM peptide. (D) The NCI dose response inhibition over time by the short sequence PAR3-derived peptide P3(42-54) using a range of concentrations between 1 μM and 200 μM peptide. (E) The NCI dose response inhibition over time by the hybrid peptide G10 in which the P1(47-55) peptide described in panel C was linked to a PAR3 peptide P3(51-65) by using 10 Gly residues. In this case the range of concentrations to study the dose response inhibition was between 3 and 50 nM peptide. An estimate for the percentage of activity for each peptide dilution in presence of thrombin can be quantified by obtaining the Area under the Curve (AUC) for each peptide dilution in comparison to the value for the AUC for thrombin alone in the absence of any peptide. These values were used to calculate the potency of each PAR peptide.
Transendothelial Electric Resistance (TER)-based assays were used to monitor the disruption of endothelial barrier integrity caused by thrombin. The anti-inflammatory, vasculoprotective actions of different PAR peptides for protecting against thrombin-induced vascular leakage on cultured endothelial cells (EA.hy926) were followed in real time using an iCELLigence machine (ACEA Biosciences Inc, San Diego, Calif.). EA.hy926 cells at a density of 10,000/well were pipetted into the wells of gold-plated microelectrode sensor (L8, Acea Biosciences). Subsequently, the increase of electrical resistance was monitored as cells grew and spread out on the microelectrodes to obtain confluence (reaching a plateau) over the TER plates connected to the recording instrument that detected in real time the changes in TER for each well. The effects of different PAR-derived peptides at the indicated concentrations were tested for dose-response inhibition of thrombin's effects when each of the peptide dilutions was added 30 min prior to the addition of thrombin (0.25 nM final in all wells). The percentage of inhibition was proportional to the increase in TER signal over time. Cell index values, reflecting TER signals, were normalized prior to addition of thrombin following manufacturer's directions.

Sequence: GAPPNSFEEFPFSALEGWTGATIT [P3R, PAR3-derived 24-mer peptide]
- effect on thrombin-induced disruption of endothelial barrier: had no significant effect
